The text below walks through data of article PMC9666779 (Frontiers in Pharmacology, 2022).

The experiment relates to pseudotyped SARS-CoV-2 Omicron BA.2.75. As to conditions: pseudotyped Omicron BA.2.75, 1 h, 2 μM.

Bridge positions count the residues as written; N and C are the ends. Square brackets hold non-standard residues; d marks the D form. Peptide text beside a SMILES is read from it.

Regarding `CC(C)C[C@@H]1NC(=O)[C@H](C(C)C)NC(=O)[C@H](C)NC(=O)[C@H](Cc2ccc(O)cc2)NC(=O)[C@H](CCC(N)=O)NC(=O)[C@H](CC(C)C)NC(=O)[C@@H](Cc2ccccc2)NC(=O)[C@H](N)CSSC[C@H](C(=O)NCC(=O)NCC(=O)NCC(=O)N[C@@H](CCCNC(=N)N)C(=O)N2CCC[C@H]2C(=O)N2CCC[C@H]2C(=O)N[C@@H](CCCNC(=N)N)C(=O)N[C@@H](CCCNC(=N)N)C(=O)N[C@@H](C)C(=O)N[C@@H](CCCNC(=N)N)C(=O)O)NC(=O)[C@H](CCC(=O)O)NC(=O)[C@H](CCCNC(=N)N)NC(=O)[C@H](CCCNC(=N)N)NC(=O)[C@H](CCCCN)NC(=O)[C@H](CCC(N)=O)NC(=O)[C@H](CCCCN)NC1=O` [MN-2] (H-[dC][dF]LQYAVLKQKRRE[dC]GGGRPPRRAR-OH; disulfide 1-15), the “inhibition rate of the variant Omicron BA.2.75 pseudovirus” value is recorded as “about 80%”.
